Experimental data as given in the supplement of paper PMC12420376.

Experiments:
[1] = test system: KURAMOCHI; test: drug sensitivity score (DSS2) on cancer cell count; higher = more sensitive; extreme values may be limits of the assay; settings: 72 h
Outline: (§1)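 Ovarian cancer cells were grown alone or in 1:1 direct co-culture with lung or skin fibroblasts. They were plated onto 384-well plates pre-spotted acoustically with 528 approved and investigational compounds at 5 concentrations, then treated for 72 h. Cells were fixed, immunostained for CK8/18 with Hoechst, and imaged at 10× (4 fields) to count cancer cells. A drug sensitivity score (DSS2) was derived in Breeze from 4-parameter logistic fits, with screen quality checked by Z'.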

[2] = test system: OVCAR8; test: as above; settings: 72 h
Outline: as §1

[3] = co-cultured fibroblast: BJHTERT
[4] = co-cultured fibroblast: none (monoculture)

| SMILES | drug sensitivity score [1, 3] | drug sensitivity score ([1]; co-cultured fibroblast: WI38) | drug sensitivity score [1, 4] | drug sensitivity score [2, 3] | drug sensitivity score ([2]; co-cultured fibroblast: WI38) | drug sensitivity score [2, 4] |
| --- | --- | --- | --- | --- | --- | --- |
| NCC(=O)Nc1ccc(-n2nc(C(F)(F)F)cc2-c2ccc3c(ccc4ccccc43)c2)cc1 | 2.6 DSS | 4.1 DSS | 8 DSS | 0 DSS | 0 DSS | 9.7 DSS |
| NC[C@@](O)(c1ccc(Cl)cc1)c1ccc(-c2cn[nH]c2)cc1 | 0 DSS | 4.2 DSS | 3 DSS | 3.3 DSS | 10.7 DSS | 5.1 DSS |
| Nc1nccc(-c2c(-c3ccc(F)cc3)ncn2C2CCCCC2)n1 | 5.1 DSS | 4 DSS | 4.1 DSS | 1.4 DSS | 0 DSS | 1.2 DSS |
| Nc1ncnc2c1c(COc1cccc(Cl)c1)nn2C1CCOCC1 | 0 DSS | 0 DSS | 0 DSS | 0 DSS | 0 DSS | 0 DSS |
| O=C(NC[C@H](O)CN1CCc2ccccc2C1)c1cc(NC2COC2)ncn1 | 0.1 DSS | 0 DSS | 0 DSS | 0 DSS | 0 DSS | 0 DSS |
| O=C(NCc1ccncc1)C12CC3CC(C1)CC(c1ccc(Cl)cc1)(C3)C2 | 5.8 DSS | 5.6 DSS | 3.7 DSS | 3.9 DSS | 3.6 DSS | 5 DSS |
| O=C(NOC[C@H](O)CO)c1ccc(F)c(F)c1Nc1ccc(I)cc1F | 8.8 DSS | 0.8 DSS | 3.3 DSS | 7.7 DSS | 0 DSS | 10.6 DSS |
| O=C(Nc1ccc2[nH]nc(-c3ccncc3)c2c1)[C@@H]1CCN(CC(=O)N2CCN(c3ccc(-c4ncccn4)cc3)CC2)C1 | 13.5 DSS | 12.4 DSS | 15.5 DSS | 16.6 DSS | 10.2 DSS | 15.5 DSS |
| O=C(O)c1ccc(-c2c[nH]c3ncc(-c4ccccc4)cc23)cc1C1CCCC1 | 6.8 DSS | 7.3 DSS | 7.1 DSS | 2 DSS | 4.8 DSS | 8.1 DSS |
| O=C(O)c1ccc(CN2CCC(CN[C@@H]3C[C@H]3c3ccccc3)CC2)cc1 | 0.9 DSS | 0 DSS | 0 DSS | 0 DSS | 0 DSS | 2.2 DSS |
| O=C1Cc2cc(C(=O)NC3C[C@H]4CC[C@@H](C3)N4S(=O)(=O)CC3CCN(CCCC(F)(F)F)CC3)c(Cl)cc2N1 (stereo partly drawn) | 0 DSS | 0.1 DSS | 0 DSS | 0 DSS | 0 DSS | 0 DSS |
| O=c1[nH]c(C2CCCN2)nc2c1oc1ccc(Cl)cc12 (stereo not drawn) | 2.2 DSS | 5.4 DSS | 4.1 DSS | 4.4 DSS | 1.8 DSS | 2.8 DSS |
| CCN(CC)CCCC(C)Nc1ccnc2cc(Cl)ccc12 (stereo not drawn) [Chloroquine] | – | – | – | 12.8 DSS | 6.4 DSS | 6.4 DSS |
| Nc1ccn([C@@H]2O[C@H](CO)[C@@H](O)[C@@H]2O)c(=O)n1 [Cytarabine] | – | – | – | 20.1 DSS | 18.3 DSS | 25.2 DSS |
| Cc1ccc(NC(=O)c2ccc(CN3CCN(C)CC3)cc2)cc1Nc1nccc(-c2cccnc2)n1 [Imatinib] | – | – | – | 2 DSS | 7.3 DSS | 1.4 DSS |
| CC[C@H](CO)Nc1nc(NCc2ccccc2)c2ncn(C(C)C)c2n1 [Seliciclib] | – | – | – | 4.9 DSS | 6.1 DSS | – |
